Values quoted from earlier work, collected in patent US6534473B1, “Process for the manufacture of tablet detergent compositions” (Unilever Patent Holdings BV, priority 1998, dated 2003).
Where two headings read alike, the source gives them in different places.

[1] = at 20° C., other common materials, by contrast

Row | SMILES | Water Solubility [1] [g/100 g] | solubility in water (at 20° C.) | Water Solubility (grams of solid to form a saturated solution in 100 grams of water at 20° C., highly water-soluble materials) [g/100 g]
1 | O=BO[O-].[Na+] [Sodium perborate anhydrous] | 3.7 | – | –
2 | NC(N)=O [Urea] | – | exceeding 100 gms per 100 ml water | >100
3 | O=P(O)(O)OP(=O)(O)OP(=O)(O)O [Sodium tripolyphosphate anhydrous] | 15 | – | –
